Measurements published in PubChem BioAssay (NCI).
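1) Cells in 96-well plates. 2) Compound, 48 h, 5 concentrations. 3) Linear interpolation between surrounding doses. 4) Unreached endpoint = highest concentration. TGI: concentration producing complete growth inhibition.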

Columns and labels:
Test in all cases: DTP human tumour cell line panel, 48 h
[1] = system: 786-0 renal
[2] = system: A498 renal
[3] = system: A549 NSCLC
[4] = system: ACHN renal
[5] = system: CAKI-1 renal
[6] = system: CCRF-CEM leukemia
[7] = system: COLO 205 colon
[8] = system: DLD-1 colon
[9] = system: DMS 114 small cell lung
[10] = system: DMS 273 small cell lung
[11] = system: EKVX NSCLC
[12] = system: HCC-2998 colon
[13] = system: HCT-116 colon
[14] = system: HCT-15 colon
[15] = system: HL-60(TB) leukemia
[16] = system: HOP-18 NSCLC
[17] = system: HOP-62 NSCLC
[18] = system: HOP-92 NSCLC
[19] = system: HT29 colon
[20] = system: IGROV1 ovarian
[21] = system: K-562 leukemia
[22] = system: KM12 colon
[23] = system: KM20L2 colon
[24] = system: LOX IMVI melanoma
[25] = system: LXFL 529 NSCLC
[26] = system: M14 melanoma
[27] = system: M19-MEL melanoma
[28] = system: MALME-3M melanoma
[29] = system: MOLT-4 leukemia
[30] = system: NCI-H226 lung
[31] = system: NCI-H23 lung
[32] = system: NCI-H460 lung
[33] = system: NCI-H522 lung
[34] = system: OVCAR-3 ovarian
[35] = system: OVCAR-4 ovarian
[36] = system: OVCAR-5 ovarian
[37] = system: OVCAR-8 ovarian
[38] = system: RPMI-8226 leukemia
[39] = system: RXF 393 renal
[40] = system: SF-268 CNS
[41] = system: SF-295 CNS
[42] = system: SF-539 CNS
[43] = system: SK-MEL-2 melanoma
[44] = system: SK-MEL-28 melanoma
[45] = system: SK-MEL-5 melanoma
[46] = system: SK-OV-3 ovarian
[47] = system: SN12C renal
[48] = system: SNB-19 CNS
[49] = system: SNB-75 CNS
[50] = system: SNB-78 CNS
[51] = system: SR leukemia
[52] = system: SW-620 colon
[53] = system: TK-10 renal
[54] = system: U251 CNS
[55] = system: UACC-257 melanoma
[56] = system: UACC-62 melanoma
[57] = system: UO-31 renal
[58] = system: XF 498 CNS

Structure (SMILES): COc1cc2c(cc1OC)C(Cc1ccc(Oc3cc(CC4c5cc(OC)c(OC)cc5CCN4C)ccc3O)cc1)N(C)CC2 (stereo not drawn)
- TGI [1]: 27.1 µM
- TGI [2]: 49.1 µM
- TGI [3]: > 100 µM
- TGI [4]: 35.2 µM
- TGI [5]: 73.3 µM
- TGI [6]: 58.4 µM
- TGI [7]: 23.8 µM
- TGI [8]: 38.7 µM
- TGI [9]: 30.9 µM
- TGI [10]: 47.8 µM
- TGI [11]: > 100 µM
- TGI [12]: 28.1 µM
- TGI [13]: 22 µM
- TGI [14]: 32 µM
- TGI [15]: 30.4 µM
- TGI [16]: 76.6 µM
- TGI [17]: 57.4 µM
- TGI [18]: 55.9 µM
- TGI [19]: 28.9 µM
- TGI [20]: 56.5 µM
- TGI [21]: 29.3 µM
- TGI [22]: 70.7 µM
- TGI [23]: 34.3 µM
- TGI [24]: 32.6 µM
- TGI [25]: 28.5 µM
- TGI [26]: 28.7 µM
- TGI [27]: 39 µM
- TGI [28]: 34.7 µM
- TGI [29]: 41.5 µM
- TGI [30]: 57.5 µM
- TGI [31]: > 100 µM
- TGI [32]: 80.4 µM
- TGI [33]: 25 µM
- TGI [34]: 50.1 µM
- TGI [35]: 54.7 µM
- TGI [36]: > 100 µM
- TGI [37]: > 100 µM
- TGI [38]: 51.4 µM
- TGI [39]: 29.4 µM
- TGI [40]: 28.7 µM
- TGI [41]: 47.1 µM
- TGI [42]: 30.6 µM
- TGI [43]: 31 µM
- TGI [44]: 30.2 µM
- TGI [45]: 29.1 µM
- TGI [46]: > 100 µM
- TGI [47]: > 100 µM
- TGI [48]: > 100 µM
- TGI [49]: 31.6 µM
- TGI [50]: > 100 µM
- TGI [51]: 24.1 µM
- TGI [52]: 35.5 µM
- TGI [53]: > 100 µM
- TGI [54]: 38.2 µM
- TGI [55]: 32 µM
- TGI [56]: 32.4 µM
- TGI [57]: 28.3 µM
- TGI [58]: 34.2 µM

Structure (SMILES): CN1C(=O)N(C)C(N2CCCC2)c2c1nc1ccccn1c2=O (stereo not drawn)
- TGI [1]: > 100 µM
- TGI [2]: > 100 µM
- TGI [3]: > 100 µM
- TGI [4]: > 100 µM
- TGI [6]: > 100 µM
- TGI [7]: > 100 µM
- TGI [8]: > 100 µM
- TGI [9]: > 100 µM
- TGI [10]: > 100 µM
- TGI [11]: > 100 µM
- TGI [12]: > 100 µM
- TGI [13]: > 100 µM
- TGI [14]: > 100 µM
- TGI [15]: > 100 µM
- TGI [16]: > 100 µM
- TGI [17]: > 100 µM
- TGI [18]: > 100 µM
- TGI [19]: > 100 µM
- TGI [20]: > 100 µM
- TGI [21]: > 100 µM
- TGI [22]: > 100 µM
- TGI [23]: > 100 µM
- TGI [24]: > 100 µM
- TGI [25]: > 100 µM
- TGI [26]: > 100 µM
- TGI [27]: > 100 µM
- TGI [28]: > 100 µM
- TGI [29]: > 100 µM
- TGI [30]: > 100 µM
- TGI [31]: > 100 µM
- TGI [32]: > 100 µM
- TGI [33]: > 100 µM
- TGI [34]: > 100 µM
- TGI [35]: > 100 µM
- TGI [37]: > 100 µM
- TGI [38]: > 100 µM
- TGI [39]: > 100 µM
- TGI [40]: > 100 µM
- TGI [41]: > 100 µM
- TGI [42]: > 100 µM
- TGI [43]: > 100 µM
- TGI [44]: > 100 µM
- TGI [46]: > 100 µM
- TGI [47]: > 100 µM
- TGI [48]: > 100 µM
- TGI [49]: > 100 µM
- TGI [50]: > 100 µM
- TGI [51]: > 100 µM
- TGI [52]: > 100 µM
- TGI [53]: > 100 µM
- TGI [54]: > 100 µM
- TGI [55]: > 100 µM
- TGI [56]: > 100 µM
- TGI [57]: > 100 µM
- TGI [58]: > 100 µM
